Experimental findings from patent US7906510B2, “Amide derivative and pharmaceutical composition containing the same” (Dainippon Sumito Pharma Co., Ltd., priority 2008, dated 2011) are described below.

Where a name gives a salt, the structure may show the parent alone. Read-outs that look alike come from different tables or passages of the source. A value given as a limit tells only on which side of the number the result lay.

In one series the target is T1, 5-HT4 receptor (Cavia porcellus, UniProt O70528).
T1 construct: the mixture was suspended to give receptor membrane preparations; from tissue; host or cells: guinea pig (Slc-Hartley) brain striatum membranes
The experiment in a line: Serotonin 4 (5-HT4) receptor binding assay. Also on record: species or system guinea pig. As to conditions: inhibition of specific binding of 0.1 nM [3H]-GR113808; guinea pig striatum membrane preparations; 37° C., 30 minutes; read-out: IC50. As to the method: 5-HT4 receptor binding assay and preparations of receptor membrane preparations were carried out according to a method of Grossman et al. [see British J. Pharmacol., (1993) 109, 618].
Slc-Hartley guinea pigs (body weight 300 to 400 g) were decapitated to remove brain rapidly, and striatum was isolated. To the obtained tissues were added fifteenfold of Hepes buffer (50 mM, pH7.4, 4° C.), and the mixture was homogenized by Teflon® homogenizer and centrifuged at 48,000×g (4° C.) for 15 minutes. To the resulting precipitate was added Hepes buffer (1 ml) to 30 mg by wet weight of tissues, and the mixture was suspended to give receptor membrane preparations.
0.1 nM [^3H]-GR113808 {chemical name: [1-[2-(methylsulfonylamino)ethyl]-4-piperidinyl]methyl 1-methylindole-3-carboxylate}, receptor membrane preparations, and Hepes buffer (50 mM, pH7.4, 4° C., 1 ml) containing test compounds or 30 μM serotonin were placed in an assay tube, and incubated at 37° C. for 30 minutes. On quenching the reaction, the mixture was rapidly filtered on whatman GF/B filter, which was presoaked in 0.1% polyethyleneimine for 1 hour, by using Brandel cell Harvester, and washed with ice-cooled 50 mM Tris-HCl (pH7.7, 4 ml) three times. To the filter after filtration was added ACS II scintillator, and then a radioactivity was determined by a liquid scintillation counter.
50% inhibition concentrations (IC50) were determined from inhibition rates of test compounds to specific bindings which were obtained by subtracting nonspecific bindings from total binding amounts of [^3H]-GR113808.

The test system of series [1] is Male Slc-Hartley guinea pigs. The experiment in a line: Electrocardiographic assay for guinea pig. The conditions noted are these: dose extending 5% of QTc; i.v. infusion for 15 minutes, anesthetized guinea pigs, ECG lead II.
Procedure: (§1) Male Slc-Hartley guinea pigs were anesthetized to determine electrocardiogram (lead II) under artificial respiration. A drug solution was continuously and intravenously infused via cannula indwelled in cervical veins at a flow rate: 0.2 ml/kg/min for 15 minutes.
Another series deals with Male Slc-ddy mice. The experiment in a line: Mouse defecation assay. The format is in vivo. Also on record: key: −: No Effect; +: Moderately Improved (p<0.05); ++: Significantly Improved (p<0.01). The conditions noted are these: 3 mg/kg orally; stool weight 30, 60 and 120 minutes after administration; Dunnett assay vs control. As to the method:
Male Slc-ddy mice (body weight 25 to 30 g) were used and allowed to ingest food and water ad libitum until commencement of experiments.
A group of 25 mice was divided into 5 groups, which 5 mice each per group were respectively transferred to fasting cages to adjust to new environments for about 1 hour. Then, each mouse was orally administered 3 mg/kg suspension of a test compound in 0.5% tragacanth solution to measure each stool weight of each group 30, 60, and 120 minutes after oral administration.
Efficacies were evaluated by Dunnett assay between test compounds and control.

For series [2], the system named is Male Slc-Hartley guinea pigs. As to conditions: guinea pig, in vivo, iv.
Procedure: as §1

T1 sequence (O70528 whole entry): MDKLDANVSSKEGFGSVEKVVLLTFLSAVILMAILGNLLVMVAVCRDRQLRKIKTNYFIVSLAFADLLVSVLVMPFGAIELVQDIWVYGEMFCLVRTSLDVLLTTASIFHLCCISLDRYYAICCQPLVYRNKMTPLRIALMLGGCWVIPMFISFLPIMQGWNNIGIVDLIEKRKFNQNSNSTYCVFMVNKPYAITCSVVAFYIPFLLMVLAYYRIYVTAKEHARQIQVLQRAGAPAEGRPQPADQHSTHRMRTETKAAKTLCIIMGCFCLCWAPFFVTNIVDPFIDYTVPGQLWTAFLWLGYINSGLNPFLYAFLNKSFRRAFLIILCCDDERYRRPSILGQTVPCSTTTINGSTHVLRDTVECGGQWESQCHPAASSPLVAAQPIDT

For the compound `CCOc1cc(N)c(Br)cc1C(=O)NCC1CN(CC2CCN(C(=O)OC(C)(C)C)CC2)CCO1` (centres unmarked) (as salt: fumarate) [Example 11, 4-amino-5-bromo-N-[{4-[(1-(tert-butoxycarbonyl)-4-piperidinyl)methyl]-2-morpholinyl}methyl]-2-ethoxybenzamide 1.5 fumarate], the melting point (commonly the temperature of the solid-liquid transition) lay in the range of 171 to 172 °C. As to `CCOc1cc(N)c(Cl)cc1C(=O)NC[C@H]1CN(CC2CCN(C(=O)N(C)C)CC2)CCO1` [Example 72], the melting point is 157 to 158 °C. Also, on 5-HT4 receptor, the half-inhibitory concentration (IC50) (as a rule, the concentration at which inhibition is half-maximal) was 9.04 nM. Moreover, in series [1], the “ED5% (mg/kg,i.v.)” value is >30 mg/kg. The Effect entry in the series on Male Slc-ddy mice is “++”. In the case of `CCOc1cc(N)c(Cl)cc1C(=O)NC[C@H]1CN(CC2CCN(C(=O)CO)CC2)CCO1` [Example 197], the “ED5% (mg/kg,i.v.)” value in series [2] is >30 mg/kg. For the same compound, the Effect entry with Male Slc-ddy mice was “++”. In turn, `COc1cc(N)c(Cl)cc1C(=O)NCC1CN(CC2CCN(C(=O)N(C)C)CC2)CCO1` (centres unmarked) [Example 67, 4-amino-5-chloro-N-[{4-[(1-dimethylcarbamoyl-4-piperidinyl)methyl]-2-morpholinyl}methyl]-2-methoxybenzamide] displayed a melting point of 179 to 180 °C. `CCOc1cc(N)c(Cl)cc1C(=O)NC[C@H]1CN(CC2CCN(C(=O)N3CCC3)CC2)CCO1` [Example 208, (S)-4-amino-N-[{4-[(1-(1-azetidinecarbonyl)-4-piperidinyl)methyl]-2-morpholinyl}methyl]-5-chloro-2-ethoxybenzamide]: the melting point was 166 to 168 °C. At 5-HT4 receptor, the half-inhibitory concentration (IC50) amounted to 4.79 nM. `CCOc1cc(N)c(Cl)cc1C(=O)NCC1CN(CC2CCN(C(N)=O)CC2)CCO1` (centres unmarked) [Example 43, 4-amino-N-[{4-((1-carbamoyl-4-piperidinyl)methyl)-2-morpholinyl}methyl]-5-chloro-2-ethoxybenzamide] displayed a melting point of 201 to 207 °C. Take `CCOc1cc(N)c(Cl)cc1C(=O)NCC1CN(CC2CCN(C(=O)OC(C)(C)C)CC2)CCO1` (centres unmarked) (as salt: fumarate) [Example 4, 4-amino-N-[{4-[(1-(tert-butoxycarbonyl)-4-piperidinyl)methyl]-2-morpholinyl}-methyl]-5-chloro-2-ethoxybenzamide 1.5 fumarate]: the melting point lay in the range of 167 to 169 °C. In the case of `CCOc1cc(N)c(Cl)cc1C(=O)NC[C@H]1CN(CC2CCN(C(=O)N(C)OC)CC2)CCO1` [Example 205, (S)-4-amino-5-chloro-2-ethoxy-N-[{4-[(1-(N-methoxy-N-methylcarbamoyl)-4-piperidinyl)methyl]-2-morpholinyl}methyl]benzamide], the melting point fell in the range of 127 to 129 °C. In the case of `CCOc1cc(N)c(Cl)cc1C(=O)NCC1CN(CC2CCN(C#N)CC2)CCO1` (centres unmarked) [Example 211, 4-amino-5-chloro-N-[{4-[(1-cyano-4-piperidinyl)methyl]-2-morpholinyl}-methyl]-2-ethoxybenzamide], the melting point is 197 °C (dec.).

Turning to `CCOc1cc(N)c(Cl)cc1C(=O)NCC1CN(CC2CCN(C(=O)OC)CC2)CCO1` (centres unmarked) [Example 93], the melting point was 175 °C. In addition, the IC50 on 5-HT4 receptor was 9.36 nM. On to `COc1cc(N)c(Cl)cc1C(=O)NC[C@H]1CN(CC2CCN(C(=O)CO)CC2)CCO1` (as salt: hydrobromid) (hydrate or solvate) [Example 220, (S)-4-amino-5-chloro-N-[{4-[(1-hydroxyacetyl-4-piperidinyl)methyl]-2-morpholinyl}methyl]-2-methoxybenzamide hydrobromide 2 hydrate], for which the melting point was 215 to 216 °C (dec.).
